The source of these data is US6699676B1, “Uses of ouabain and ouabain-like molecules in apoptosis related pathologies” (Corporation du Centre de Recherche du Centre, Hospitalier …, priority 1999, dated 2004).

Structures are written as SMILES. Marks after values point to notes of the source that are not given here.

Holding throughout (type): cell-based, rat
In one data set the test system is VSMC-E1A. Put plainly: Cell morphology by phase contrast microscopy in VSMC-E1A. The conditions noted are these: 1 mM ouabain pretreatment, 6 hours serum-deprived medium. On the procedure: FIG. 3. Effect of ouabain on morphology (A) and DNA laddering (B and C) in VSMC-E1A. In experiments with ouabain, cells were pretreated with 1 mM of this compound 1 hour before 6 hours exposure to serum-free medium. A. Cell morphology was evaluated by phase contrast microscopy without preliminary fixation. a, c) DMEM containing 10% calf serum; b, d) serum-free DMEM; a, b) without ouabain; c, d) in the presence of ouabain. Micro graphs were prepared using a Nikon phase contrast microscope at ×100 magnification. Apoptotic cells are shown by arrows. B. DNA laddering (left part of the figure) was analyzed with a PhosphorImager, and relative content of low molecular weight DNA fragments (1,500−125 bp−right part of the figure) in cells incubated with 10% calf serum (CS) in the absence of ouabain was taken as 100%. Means±S.E. obtained in 2 experiments performed in triplicate are shown.

For the next data set, the system named is VSMC-MYC. Put plainly: Chromatin cleavage assay in VSMC-MYC. The conditions noted are these: 1 mM ouabain, 1 hr preincubation, 6 hours. The protocol:
Cells were incubated in K^+-containing medium consisting of 91 mM NaCl, 5 mM KCl, 0.9 mM NaH2PO4, 44 mM NaHCO3, 1.8 mM CaCl2, 0.8 mM MgCl2, 33 mM HEPES and 5 mM D-glucose (pH 7.4) (lines 1 and 2) or in K^+-depleted medium (equimolar substitution of KCl by NaCl, line 3) with or without 10% calf serum (CS) and 1 mM ouabain as indicated. In experiments with VSMC-MYC and VSMC-E1A, cells were preincubated for 1 hr with ouabain or with K^+-depleted medium in the presence of CS and then subjected to treatment with serum-free media. After 24 hours (VSMC) or 6 hours (VSMC-MYC and VSMC-E1A), the content of chromatin fragments was measured as described in Experimental Procedures. […]
Chromatin cleavage assay. […] After 15 min, the cell lysate was transferred to Ependorf tubes, sedimented (12,000 rpm, 10 mm), and 1 ml of supernatant was transferred for the measurement of radioactivity (A1t). The remaining radioactivity from pellets and wells was extracted with 0.5 ml of 1% SDS/4 mM EDTA mixture, combined and counted (A2). Chromatin cleavage was quantified as the content of chromatin fragments normalized by total content of [^3H]-labeled DNA in accordance with the equation [1.5×(A1t−A1o)/(A2+A1t−1.5A1o)]×100% where A1o is the value of A1t before induction of apoptosis. […]

In data set [1] the test system is VSMC. Put plainly: DNA synthesis, serum-induced [3H]-thymidine incorporation in VSMC. On the procedure: As with ouabain, VSMC apoptosis was blocked by inhibition of the Na^+,K^+ pump in K^+-depleted medium (Table 1). […] DNA synthesis in VSMC, measured as serum-induced [^3H]-thymidine incorporation, was also insensitive to 5 hours preincubation with ouabain and was decreased by ˜60% only after 48 hours of the Na^+, K^+ pump inhibition (data not presented).

The subject of data set [2] is VSMC. Put plainly: LDH release (necrosis marker) in VSMC. On the procedure: VSMC growing in 6-well (LDH release) or 24-well (chromatin cleavage assay) plates were preincubated for 3 hours with or without 1 mM ouabain. In part of the experiments, the cells were subjected to 30 min incubation at 46° C. (heat-treated cells, line 3). They were then incubated in the absence or presence of 10% calf serum during additional 8 hr and chromatin cleavage and LDH release were measured as indicated in Experimental Procedures and with a spectrophotometric kit (Sigma), respectively. Means±S.E. from experiments performed in triplicate (LDH release) or quadruplicate (chromatin cleavage) are given. ★, ★★ p<0.05 and 0.001 compared to ouabain-untreated cells. #p<0.001 compared to serum-supplied, heat-untreated cells.
A general note: LDH leaks from cells whose membrane has failed.

As to `C[C@@H]1O[C@@H](O[C@H]2C[C@@H](O)[C@]3(CO)[C@H]4[C@H](O)C[C@]5(C)[C@@H](C6=CC(=O)OC6)CC[C@]5(O)[C@@H]4CC[C@]3(O)C2)[C@H](O)[C@H](O)[C@H]1O` [Ouabain, 1β,3β,5,11α,14,19-hexahydroxycard 20 [22]-enolide 3-[6-deoxy-α-L-mannopyrano-sidel]], the “number of apoptotic cells” value with VSMC-E1A is “sharply decreased the number of apoptotic cells”. Besides, the “Chromatin fragments (%)” value is reported as 1.4 ± 0.3% in the data set with VSMC-MYC (10% CS) and 3.1 ± 0.4 % with VSMC-MYC (CS-free). Also, in the data set on VSMC [1] (5 hours preincubation with ouabain), the “DNA synthesis, serum-induced [^3H]-thymidine incorporation” value is “insensitive”. Besides, in the data set on VSMC [1] (after 48 hours of Na+,K+ pump inhibition with ouabain), the “decrease of DNA synthesis, serum-induced [^3H]-thymidine incorporation” value was approximately 60%. The LDH release result in the data set on VSMC [2] (VSMC, 8 hours incubation with ouabain) is listed as “did not observe any significant effect”. In the data set on VSMC [2] (VSMC, heat stress 46° C., 30 min, ouabain), the “heat stress-induced LDH-release” value was “did not observe modulation”. The “LDH release (%)” value in the data set with VSMC [2] (serum-deprived VSMC, 3 hours preincubation 1 mM ouabain, additional 8 hr) is recorded as 1.8 ± 0.4%; in the data set on VSMC [2] (serum-supplied VSMC, 3 hours preincubation 1 mM ouabain, additional 8 hr), 1.2 ± 0.3%; in the data set with VSMC [2] (serum-supplied, heat-treated (46° C., 30 min) VSMC, 1 mM ouabain, 8 hr), 11.0 ± 2.8# %.
